Entries after “also recorded” stand apart in the source; their conditions may differ.
Columns and labels:
[1] = molecular target: T1, rCB2 (Rattus norvegicus, UniProt Q9QZN9); conditions: cited from earlier work
T1 sequence (Q9QZN9 1-360): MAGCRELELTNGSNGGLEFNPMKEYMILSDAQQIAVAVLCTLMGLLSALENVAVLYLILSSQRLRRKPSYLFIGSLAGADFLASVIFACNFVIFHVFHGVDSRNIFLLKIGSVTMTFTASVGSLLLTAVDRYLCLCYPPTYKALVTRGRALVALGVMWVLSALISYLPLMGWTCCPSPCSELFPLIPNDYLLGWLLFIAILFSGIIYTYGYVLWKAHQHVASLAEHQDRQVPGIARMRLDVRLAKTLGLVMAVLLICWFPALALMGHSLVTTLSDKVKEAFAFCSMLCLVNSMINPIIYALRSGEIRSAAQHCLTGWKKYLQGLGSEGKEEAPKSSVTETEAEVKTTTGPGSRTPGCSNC

[2] = system: Aβ1-40; assay: Clearance of Aβ1-40 injected in the hippocampal CA1 area (immunofluorescence); assay type: in vivo, rat; conditions: Aβ1-40-injected rats, 15 mg/kg per day for 14 days; hippocampal CA1
Method: (§1) Animals were divided into several groups ([…]). The Aβ1-40 group received bilateral intracerebral microinjection of Aβ1-40 fibrils once and saline intraperitoneally (i.p.) daily for 14 days. The Aβ1-40+MDA7 group received bilateral intracerebral microinjection of Aβ1-40 fibrils once and 15 mg/kg MDA7 i.p. daily for 14 days. Other cohorts received smaller doses of MDA7 (5 mg/kg or 1.5 mg/kg) i.p. daily for 14 days to determine the dose-response characteristics for MDA7. In other groups, AM630 (a CB2 antagonist) 5 mg/kg i.p. was administered daily for 14 days either alone (Aβ1-40+AM630 group) or 15 min prior to MDA7 (15 mg/kg i.p.) administration (Aβ1-40+MDA7+AM630 group) to rats injected with β1-40 fibrils. MDA7 group and control group received bilateral intracerebral microinjection of artificial cerebrospinal fluid (130 mM NaCl, 2.6 mM KCl. 4.3 mM MgCl2 and 1.8 mM CaCl2) once and 15 mg/kg MDA7 or saline i.p. daily for 14 days, respectively. Intraperitoneal administration of AM630, MDA7 or saline started on the same day after intracerebral microinjection of Aβ1-40. All drugs were prepared coded. Decoding was performed at the end of all experiments.
Microinjection of amyloid fibrils into the hippocampal CA1 area. Rats were anesthetized with sodium pentobarbital (45 mg/kg i.p.) and restrained in a stereotaxic apparatus. Aβ1-40 fibrils were formed as described previously. […]
Immunostaining. […] Three to six sections from each rat were randomly selected and were analyzed using Leica DMLB fluorescence microscope (Leica Microsystems Wetzlar GmbH, Germany) by one investigator, who was blinded to the origin of tissue being examined. Images were quantified using MCID Core software version 7.0 (InterFocus Imaging Ltd, Cambridge, England).

[3] = system: cognitive impairment induced by Aβ1-40; assay: Morris water maze test in rats microinjected with Aβ1-40 fibrils; assay type: in vivo, rat
Method: Animals and treatment protocol. All animal procedures were approved by the Animal Care and Use Committee of Cleveland Clinic. Animals were housed the Institutional Biological Rodent Unit on a 12/12 h light/dark cycle with water and food pellets available ad libitum. Adult male Sprague-Dawley (Charles River, Wilmington, Mass.) rats weighing 200-250 g were used, and all experiments were performed during the light cycle.
as §1
Microinjection of amyloid fibrils into the hippocampal CA1 area. Rats were anesthetized with sodium pentobarbital (45 mg/kg i.p.) and restrained in a stereotaxic apparatus. Aβ1-40 fibrils were formed as described previously. Chacon, et al., Mol Psychiatry 9(10), 953-61 (2004), Aβ1-40 fibrils (10 μg/3 μl) or 3 μl of artificial cerebrospinal fluid were injected stereotaxically and bilaterally into each hippocampus (coordinates; Bregma −3.5 mm anteroposterior, ±2.0 mm mediolateral, and −3.0 mm dorsoventral) using a 10 μl Hamilton syringe with a 27 G stainless steel needle at a rate of 0.5 μl/min. This experimental model has been used for studying AD. Ahmed, et al., Neuroscience 169(3), 1296-306 (2010).
Morris water maze test. A cohort of rats (n=10 per group) was tested 15 days after surgery as described by Chacon et al. (ibid). Testing was conducted in all groups at the same time of the day. The experimental apparatus consisted of a circular pool (120 cm in diameter, 45 cm high). An invisible platform (15 cm in diameter, 35 cm high) was placed 1.5 cm below the surface of the water. The water temperature was kept at 24-28° C. The pool was located in a test room, and many clues external to the maze were visible from the pool, which could be used by the rats for spatial orientation. The position of the cues was kept constant throughout the task. Each rat underwent four trials per day for five days. During each trial (memory acquisition), the rats were placed randomly at one of four fixed starting points and were allowed to swim for 120 s or until they escaped from the water by reaching the platform. The platform was located in the same position throughout the test in the middle of one quadrant. The start location was moved to a different quadrant in each trial so that no single start location was used in consecutive trials. In each training session, the latency to escape to the hidden platform was recorded. After the rats reached the platform, they were allowed to rest there for 20 seconds, and they then were removed from the pool. An inter-trial interval of at least 4 minutes was used to ensure that each rat's performance was not impaired by fatigue. After completing four trials, the rats were removed from the pool, dried and returned to their home cage. […]

Compound: CC1(Cc2ccccc2)COc2cc(C(=O)N3CCCCC3)ccc21 (stereo not shown) [MDA7, 3-benzyl-3-methyl-2,3-dihydrobenzofuran-6-carboxylic acid-piperidine amide]
- EC50 [1]: 67 nM
- clearance of injected Aβ1-40 [2]: induced removal of Aβ1-40
- escape latency / memory enhancement in the Morris water maze test ([3]; Aβ1-40 fibril-injected rats, 1.5 mg/kg i.p. daily for 14 days): did not result in any significant memory enhancement
- escape latency / memory enhancement in the Morris water maze test ([3]; Aβ1-40 fibril-injected rats, 5 mg/kg i.p. daily for 14 days): limited only to days 3 and 5
- escape latency in the Morris water maze test ([3]; Aβ1-40 fibril-injected rats, 15 mg/kg i.p. daily for 14 days, vs i.p. saline, days 3-5): significantly shorter escape latency
- probe trial, time spent in the target quadrant ([3]; Aβ1-40 fibril-injected rats, 15 mg/kg i.p. for 14 days, vs i.p. saline, day 6, 15 mg/kg): spent the longest time in the target quadrant; also recorded: significantly longer time in the target quadrant
- escape latency, treatment alone ([3]; rats microinjected with artificial cerebrospinal fluid, 15 mg/kg for 14 days vs saline i.p.): no significant difference

From patent US11160798B2, “Neuroprotective CB2 receptor agonists” (THE CLEVELAND CLINIC FOUNDATION, priority 2012, dated 2021)
